According to ChEMBL document CHEMBL1201862, “PubChem BioAssay data set” (2004):
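Results reflect a 48-hour exposure of cells in 96-well plates to compound at five concentrations. GI50 = concentration required for 50% inhibition of growth.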 Active and inactive are the calls of the source. Cut-off read from the data, not from the text of the source: active = GI50 up to about 1.1 µM and inactive = higher.

Columns and labels:
Experiment in all cases: NCI-60 cell line screen, 48 h
HCT-116 = test system: HCT-116
HOP-92 = test system: HOP-92
K562 = test system: K562
IGROV-1 = test system: IGROV-1
HOP-62 = test system: HOP-62
KM-20L2 = test system: KM-20L2
SK-OV-3 = test system: SK-OV-3
OVCAR-5 = test system: OVCAR-5
U-251 = test system: U-251
CAKI-1 = test system: CAKI-1
SK-MEL-5 = test system: SK-MEL-5
UACC-257 = test system: UACC-257
RXF 393 = test system: RXF 393
HL-60 = test system: HL-60
NCI-H23 = test system: NCI-H23
CCRF-CEM = test system: CCRF-CEM
SF-295 = test system: SF-295
T47D = test system: T47D
NCI/ADR-RES = test system: NCI/ADR-RES
MDA-MB-435 = test system: MDA-MB-435

| SMILES | GI50 (HCT-116) | GI50 (HOP-92) | GI50 (K562) | GI50 (IGROV-1) | GI50 (HOP-62) | GI50 (KM-20L2) | GI50 (SK-OV-3) | GI50 (OVCAR-5) | GI50 (U-251) | GI50 (CAKI-1) | GI50 (SK-MEL-5) | GI50 (UACC-257) | GI50 (RXF 393) | GI50 (HL-60) | GI50 (NCI-H23) | GI50 (CCRF-CEM) | GI50 (SF-295) | GI50 (T47D) | GI50 (NCI/ADR-RES) | GI50 (MDA-MB-435) |
| --- | --- | --- | --- | --- | --- | --- | --- | --- | --- | --- | --- | --- | --- | --- | --- | --- | --- | --- | --- | --- |
| Cc1cc(N(CCC#N)CCC#N)ccc1/C=N\c1ccc(C(=O)NN2C(=O)/C(=C/c3ccc(N(CCC#N)CCC#N)cc3)N=C2c2cc([N+](=O)[O-])ccc2Cl)cc1 | > 100 µM (inactive) | > 100 µM (inactive) | 33 µM (inactive) | > 100 µM (inactive) | 95.1 µM (inactive) | 67.1 µM (inactive) | > 100 µM (inactive) | > 100 µM (inactive) | > 100 µM (inactive) | > 100 µM (inactive) | 55.3 µM (inactive) | > 100 µM (inactive) | > 100 µM (inactive) | 61.1 µM (inactive) | > 100 µM (inactive) | 65.6 µM (inactive) |  |  |  |  |
| CC(C)(C)CC(C)(C)c1cc2c(O)c(c1)Cc1cc(C(C)(C)CC(C)(C)C)cc(c1O)Cc1cc(C(C)(C)CC(C)(C)C)cc(c1O)Cc1cc(C(C)(C)CC(C)(C)C)cc(c1O)Cc1cc(C(C)(C)CC(C)(C)C)cc(c1O)Cc1cc(C(C)(C)CC(C)(C)C)cc(c1O)Cc1cc(C(C)(C)CC(C)(C)C)cc(c1O)Cc1cc(C(C)(C)CC(C)(C)C)cc(c1O)C2 | > 100 µM (inactive) | > 100 µM (inactive) | > 100 µM (inactive) | > 100 µM (inactive) | > 100 µM (inactive) | > 100 µM (inactive) |  | > 100 µM (inactive) | > 100 µM (inactive) |  | > 100 µM (inactive) | > 100 µM (inactive) | > 100 µM (inactive) | > 100 µM (inactive) | > 100 µM (inactive) | > 100 µM (inactive) | > 100 µM (inactive) |  |  |  |
| O=C(c1cc(=O)c2ccc(O)cc2o1)c1ccc(Cl)cc1Cl | 13.6 µM (inactive) | 32.8 µM (inactive) | 0.547 µM (active) | 17.7 µM (inactive) | 8.18 µM (inactive) | 10.6 µM (inactive) | > 62.1 µM (inactive) | > 74.8 µM (inactive) | 20.6 µM (inactive) | > 69.7 µM (inactive) | 20.4 µM (inactive) | 19.5 µM (inactive) | 29 µM (inactive) | 1.26 µM (inactive) | 24 µM (inactive) | 7.35 µM (inactive) | 20.6 µM (inactive) |  |  |  |
| O=C(CC1(O)C(=O)Nc2ccccc21)c1ccccc1O (configuration not stated) | > 100 µM (inactive) | > 100 µM (inactive) | > 100 µM (inactive) | > 100 µM (inactive) | > 100 µM (inactive) | > 100 µM (inactive) | > 100 µM (inactive) | > 100 µM (inactive) |  | > 100 µM (inactive) | > 100 µM (inactive) | > 100 µM (inactive) | > 100 µM (inactive) | > 100 µM (inactive) | > 100 µM (inactive) |  | > 100 µM (inactive) |  |  |  |
| C[C@@H](O)CCC(=O)c1ccoc1 | > 100 µM (inactive) | > 100 µM (inactive) | > 100 µM (inactive) | > 100 µM (inactive) | > 100 µM (inactive) | > 100 µM (inactive) | > 100 µM (inactive) | > 100 µM (inactive) | > 100 µM (inactive) | > 100 µM (inactive) | > 100 µM (inactive) | > 100 µM (inactive) | > 100 µM (inactive) | > 100 µM (inactive) | > 100 µM (inactive) | > 100 µM (inactive) | > 100 µM (inactive) |  |  |  |
| O=C(OCc1ccccc1)N1N=NC2C1C1CC(OCc3ccccc3)(OCc3ccccc3)C2O1 (configuration not stated) |  | > 100 µM (inactive) | > 100 µM (inactive) | > 100 µM (inactive) | > 100 µM (inactive) | > 100 µM (inactive) | > 100 µM (inactive) | > 100 µM (inactive) | > 100 µM (inactive) | > 100 µM (inactive) | > 100 µM (inactive) | > 100 µM (inactive) | > 100 µM (inactive) | > 100 µM (inactive) | > 100 µM (inactive) | > 100 µM (inactive) | > 100 µM (inactive) |  |  |  |
| O/N=C1/C(=C/c2ccccc2)CCCC1C(NO)c1ccccc1 (configuration not stated) | 48.1 µM (inactive) | 33.3 µM (inactive) | 3.31 µM (inactive) | > 100 µM (inactive) |  | > 100 µM (inactive) | > 100 µM (inactive) | > 100 µM (inactive) | > 10 µM (inactive) |  |  | 38.5 µM (inactive) | 34.8 µM (inactive) | 2.29 µM (inactive) | 59.2 µM (inactive) |  | 78.3 µM (inactive) |  |  |  |
| COc1ccc(C(=O)C2CCC(C(=O)O)C2)cc1 (configuration not stated) | > 100 µM (inactive) | > 100 µM (inactive) | > 100 µM (inactive) | > 100 µM (inactive) | > 100 µM (inactive) | > 100 µM (inactive) | > 100 µM (inactive) | > 100 µM (inactive) | > 100 µM (inactive) | > 100 µM (inactive) | > 100 µM (inactive) | > 100 µM (inactive) | > 100 µM (inactive) | > 100 µM (inactive) | > 100 µM (inactive) | > 100 µM (inactive) | > 100 µM (inactive) |  |  |  |
| CC(C)(C)c1cc2c(OP(c3ccccc3)c3ccccc3)c(c1)Cc1cc(C(C)(C)C)cc(c1OP(c1ccccc1)c1ccccc1)Cc1cc(C(C)(C)C)cc(c1OP(c1ccccc1)c1ccccc1)Cc1cc(C(C)(C)C)cc(c1OP(c1ccccc1)c1ccccc1)C2 | > 5 µM (inactive) | > 5 µM (inactive) | > 5 µM (inactive) | > 5 µM (inactive) | > 5 µM (inactive) | > 5 µM (inactive) | > 5 µM (inactive) | > 5 µM (inactive) | > 5 µM (inactive) | > 5 µM (inactive) | > 5 µM (inactive) | > 5 µM (inactive) | 19.8 µM (inactive) | > 5 µM (inactive) | > 5 µM (inactive) | > 5 µM (inactive) | > 5 µM (inactive) |  |  |  |
| CC12OOC(c3ccccc31)c1c2ccc2ccccc12 (configuration not stated) | 1.73 µM (inactive) | 2.44 µM (inactive) | 1.65 µM (inactive) | 1.53 µM (inactive) | 16.2 µM (inactive) | 3.66 µM (inactive) | 20 µM (inactive) | 19.5 µM (inactive) | 14.7 µM (inactive) | 0.641 µM (active) | 8.53 µM (inactive) | 13.4 µM (inactive) | 1.18 µM (inactive) | 0.334 µM (active) | 11.4 µM (inactive) | 0.904 µM (active) | 7.11 µM (inactive) | 1.82 µM (inactive) | 10 µM (inactive) | 6.3 µM (inactive) |
| COC(=O)n1c(C[P+](c2ccccc2)(c2ccccc2)c2ccccc2)cc2ccccc21 | 1.11 µM (active) | 0.0318 µM (active) | 0.438 µM (active) | 0.664 µM (active) | 1.73 µM (inactive) | 1.94 µM (inactive) | 0.652 µM (active) | 2.11 µM (inactive) | 2.81 µM (inactive) | 2.06 µM (inactive) | 0.414 µM (active) |  | 3.43 µM (inactive) | 0.869 µM (active) | 1.86 µM (inactive) | 0.931 µM (active) | 2.29 µM (inactive) |  |  |  |
| O=c1[nH]c(-c2ccc(-c3nc4cc([N+](=O)[O-])ccc4c(=O)[nH]3)cc2)nc2cc([N+](=O)[O-])ccc12 | > 100 µM (inactive) | > 100 µM (inactive) | > 100 µM (inactive) | > 100 µM (inactive) | > 100 µM (inactive) | > 100 µM (inactive) | > 100 µM (inactive) | > 100 µM (inactive) | > 100 µM (inactive) | > 100 µM (inactive) | > 100 µM (inactive) | > 100 µM (inactive) | > 100 µM (inactive) | > 100 µM (inactive) | > 100 µM (inactive) | > 100 µM (inactive) | > 100 µM (inactive) |  |  |  |
| COc1ccc(C)cc1-c1cc(Sc2ccccc2)c(-c2cc(C)ccc2OC)o1 | > 31.6 µM (inactive) | > 31.6 µM (inactive) | > 31.6 µM (inactive) | > 31.6 µM (inactive) | > 31.6 µM (inactive) | > 31.6 µM (inactive) | > 31.6 µM (inactive) | > 100 µM (inactive) | > 31.6 µM (inactive) | > 31.6 µM (inactive) | > 31.6 µM (inactive) | > 31.6 µM (inactive) |  | > 31.6 µM (inactive) | > 31.6 µM (inactive) | > 31.6 µM (inactive) | > 100 µM (inactive) |  |  |  |
| O=C1c2nc3n(c2C(=O)c2c1nc1n2CCC1)CCC3 | 3.03 µM (inactive) | 13.1 µM (inactive) | 13 µM (inactive) | 11.5 µM (inactive) | 4.62 µM (inactive) | 3.61 µM (inactive) | 23.7 µM (inactive) | 16.9 µM (inactive) | 6.79 µM (inactive) | 9.35 µM (inactive) | 1.44 µM (inactive) | 2.2 µM (inactive) | 2.74 µM (inactive) |  | 2.49 µM (inactive) | 6.41 µM (inactive) | 5.37 µM (inactive) | > 10 µM (inactive) | > 10 µM (inactive) | 2.02 µM (inactive) |
| CC1(Sc2ccccc2)CN(Cc2ccccc2)C1=O (configuration not stated) | 60 µM (inactive) | 20.5 µM (inactive) | 77.8 µM (inactive) | > 100 µM (inactive) | > 100 µM (inactive) | > 100 µM (inactive) | > 100 µM (inactive) |  | > 100 µM (inactive) |  | > 100 µM (inactive) | 54.5 µM (inactive) | > 100 µM (inactive) | 60.4 µM (inactive) | > 100 µM (inactive) | > 100 µM (inactive) | > 100 µM (inactive) |  |  |  |
| CC(C)[C@H]1CO[C@]2(C)[C@@H]3CN(Cc4ccccc4)C[C@@H]3C(=O)N12 | > 100 µM (inactive) | 74.5 µM (inactive) | > 100 µM (inactive) | > 100 µM (inactive) | > 100 µM (inactive) | > 100 µM (inactive) | > 100 µM (inactive) |  | > 100 µM (inactive) | > 100 µM (inactive) | > 100 µM (inactive) | > 100 µM (inactive) | > 100 µM (inactive) | > 100 µM (inactive) | > 100 µM (inactive) | > 100 µM (inactive) | > 100 µM (inactive) |  |  |  |
